Key:
[1] = UV-Vis host-guest titration, association constant; assay type: binding
Protocol: (§1) Path length of the quartz cell was 1 cm. For UV-vis titrations, a stock solution of host was prepared (2.2×10^−3 M) in dichloromethane (DCM) and serially diluted to the required concentrations. Working solutions of tetrabutylammonium (TBA) anion salts or guest molecules were prepared in the same manner Host−guest titrations used solutions of guest prepared in the working concentration of host solution, according to the procedure of Thordarson, 2011.
(§2) UV-vis spectroscopic host−guest titrations were performed in accordance with the methodologies of Thordarson, 2011. Solutions of host in dichloromethane were prepared. Solutions of guest were then prepared in the host solution. Aliquots of guest in host solution were added to host solution and sequentially analysed until a known molar equivalent of guest was added. The amount of guest added per aliquot was ascertained by a preliminary screening experiment; strong association constants required smaller molar equivalents so more information could be collected. […] The inverse is true for weaker binding interactions. Molar equivalents between 0.1-5 typically provided adequate information for modelling. The data was then used to simulate binding isotherms using www.supramolecular.org (Hibbert and Thordarson, 2016). The data was fitted to 1:1, 1:2 and 2:1 equilibria making no assumptions about the cooperativity of the binding interactions and modelled using different algorithms. These experiments mainly used the Nelder-Mead (Simplex) method.
UV-Vis spectroscopy binding studies were used to determine the association constant for the host (9)−PFOA complex.
(§3) A host solution of host (9) in dichloromethane was monitored using UV-Vis analysis as 0.5-10 equivalents of each PFAS was added. […] The data was processed using Bindfit isotherm simulators using both Nelder-Mead and L-BFGS-B methods (Thordarson, 2011).
(§4) To highlight any potential binding preferences across the PFCAs from the host molecules, triplicates of host−guest addition titrations were performed using host (9) and the TBA salts of the nine different deprotonated PFCAs.

[2] = UV-Vis host-guest titration, association constant; assay type: binding; remark: listed apart in the source
Protocol: as §1, §2, §3, §4
Host (12) was also modelled for secondary binding interactions in the presence of additional guest (Table 9).

[3] = PFCA guest response across the nine PFCAs (UV-Vis, RGB, one-way ANOVA variance); conditions: dichloromethane
Protocol: Experiments were performed at concentrations that could be monitored by the naked eye for practical sensing of PFAS in the field. Complexes of hosts (9), (11) and (12) were formed with the nine different perfluorocarboxylic acids (PFCAs) shown in Table 2 above and the colours of each host−PFCA complex were photographed in a lightbox and analysed using ImageJ software RGB analysis. Pixels of the solution were chosen at random to provide an RGB value. Multiple RGB values were recorded for each host−PFCA solution, and an average colour can be produced. From those values an RGB parameter was used to give a response value for modelling (Tahir et al., 2016).
After preliminary screenings, UV-Vis spectra were collected before and after the addition of 1 molar equivalent of each PFCA for each host, and the degree of complexation was noted by shifts in the Soret bands and formation of a peak at ca. 650 nm. To eliminate dilution effects, PFCA guest solutions were prepared in the equivalent concentration of host. If there was a notable host−guest interaction for a particular PFCA, the host−guest binding was investigated with more rigorous UV-Vis experiments, binding studies, and further colour analyses. Throughout these investigations, PFOA was considered the “average” PFCA both because of its position in the range of PFCA sizes and because its prevalence is often an indication of broader PFAS contamination. In any experiment where binding was further investigated for a particular PFCA, it was typically replicated with PFOA for comparison.
One-way factorial ANOVA was used to examine the dependence (or independence) of two or more factors affecting the dependent variable concurrently, in the present case the change in absorption, or the change in RGB response across the tested PFCAs, or across the different hosts. This analysis was used to determine the variance in the responses of each host across the different PFCAs. […]

[4] = Colorimetric calibration chart, RGB response to known PFOA concentrations; conditions: PFOA 0.7 ppm, dichloromethane
Protocol: The host molecules were combined with known concentrations of PFOA to provide RGB colour responses, which were used to create a colorimetric calibration chart that could be trialled as an indicator for estimating the total concentration of a range of any PFCAs. Solutions of each host molecule (1.00×10^−5 M) were prepared in dichloromethane. Solutions of PFOA in dichloromethane were prepared across a range of concentrations (0→16 ppm, 4.00×10^−5 M). Each host (2 mL) was combined with each PFOA concentration (1 mL, final concentration 0→1.33×10^−5 M) and photographed under equivalent lighting conditions. The average colour of each solution was then found using ImageJ RGB analysis, and a colour chart was produced.
For this reason, parametrization of the RGB values can be useful for interpreting results. The RGB response parameter can be calculated using the RGB values of the “blank” host solution (Šafranko et al., 2019) and the effective intensities of the individual RGB values of a sample (Tahir et al., 2016):
Here, H, indicates the values for the host solution, and S, indicates the response for a sample containing a PFCA, so that ΔR, ΔG, and ΔB give the colour differences. The RGB parameter is the response due to the relative difference in the RGB intensities:
The RGB values collected for each host with a range of known concentrations of PFOA in dichloromethane were parameterized and used to determine a relationship between concentration of analyte and RGB response values. […] The relationship between RGB response values and concentrations of PFOA could now be tested for accuracy in determining the concentration of any PFCA.

[5] = short, medium and long chain sensor molecules with PFOA
[6] = host (9) in dichloromethane, triplicate, TBA salt and acid, Bindfit

SMILES | K ([1]; 1 Host:1 Guest binding mode) | K11 ([1]; 1 Host:2 Guest binding mode) | K12 ([1]; 1 Host:2 Guest binding mode) | K [1, 5] [M⁻¹] | K ([2]; 1 Host:1 Guest binding mode) | K11 ([2]; 1 Host:2 Guest binding mode) | K12 ([2]; 1 Host:2 Guest binding mode) | K11 ([2]; 2 Host:1 Guest binding mode) | K21 ([2]; 2 Host:1 Guest binding mode) | colorimetric response to all nine PFCAs [3] | ΔE between host and lowest PFOA concentration [4] | association constant (Ka) ([1]; host 1.01×10^−6 M in dichloromethane, TBAPFO aliquots, 1:1, Nelder-Mead and L-BFGS-B) [M⁻¹] | K value (averaged association constant Ka) [1, 6] | K value (averaged association constant Ka) [2, 6]
O=C(Nc1ccccc1-c1c2nc(c(-c3ccccc3NC(=O)C(F)(F)C(F)(F)C(F)(F)C(F)(F)C(F)(F)C(F)(F)C(F)(F)C(F)(F)C(F)(F)C(F)(F)C(F)(F)F)c3ccc([nH]3)c(-c3ccccc3NC(=O)C(F)(F)C(F)(F)C(F)(F)C(F)(F)C(F)(F)C(F)(F)C(F)(F)C(F)(F)C(F)(F)C(F)(F)C(F)(F)F)c3nc(c(-c4ccccc4NC(=O)C(F)(F)C(F)(F)C(F)(F)C(F)(F)C(F)(F)C(F)(F)C(F)(F)C(F)(F)C(F)(F)C(F)(F)C(F)(F)F)c4ccc1[nH]4)C=C3)C=C2)C(F)(F)C(F)(F)C(F)(F)C(F)(F)C(F)(F)C(F)(F)C(F)(F)C(F)(F)C(F)(F)C(F)(F)C(F)(F)F [host (12), α,α,α,α-5,10,15,20-tetrakis(2-(tricosafluorododecanoylamino)phenyl) porphyrin] | 1.58 × 10^5 | 1.49 × 10^7 | 1.17 × 10^2 | 1.67e+06 | 3.76 × 10^4 | 1.76 × 10^6 | 7.92 × 10^4 | 2.37 × 10^5 | 6.69 × 10^4 | provided a colorimetric response | 24 |  |  | 
O=C(Nc1ccccc1-c1c2nc(c(-c3ccccc3NC(=O)C(F)(F)C(F)(F)C(F)(F)C(F)(F)C(F)(F)C(F)(F)C(F)(F)F)c3ccc([nH]3)c(-c3ccccc3NC(=O)C(F)(F)C(F)(F)C(F)(F)C(F)(F)C(F)(F)C(F)(F)C(F)(F)F)c3nc(c(-c4ccccc4NC(=O)C(F)(F)C(F)(F)C(F)(F)C(F)(F)C(F)(F)C(F)(F)C(F)(F)F)c4ccc1[nH]4)C=C3)C=C2)C(F)(F)C(F)(F)C(F)(F)C(F)(F)C(F)(F)C(F)(F)C(F)(F)F [host (9), α,α,α,α-5,10,15,20-tetrakis(2-(pentadecafluorooctanoylamino)phenyl)porphyrin] |  |  |  | 1.77e+06 |  |  |  |  |  | colorimetric response was visible | 11 | ~2.8e+06 | 109574 | 1010

Reference: patent US20240166658A1, “PORPHYRIN DERIVATIVES AND USES THEREOF” (University of Tasmania, priority 2021, published 2024)
